{"source": "patent US7964560B2", "about": "“Hepatitis C virus inhibitors” (Bristol-Myers Squibb Company, priority 2008, dated 2011)", "key": {"[1]": {"target": "T1, porcine pancreatic elastase (PPE) (Sus scrofa, UniProt P00772)", "T1 construct": "purchased Sigma, EMDbiosciences", "T1 sequence (P00772 27-266)": "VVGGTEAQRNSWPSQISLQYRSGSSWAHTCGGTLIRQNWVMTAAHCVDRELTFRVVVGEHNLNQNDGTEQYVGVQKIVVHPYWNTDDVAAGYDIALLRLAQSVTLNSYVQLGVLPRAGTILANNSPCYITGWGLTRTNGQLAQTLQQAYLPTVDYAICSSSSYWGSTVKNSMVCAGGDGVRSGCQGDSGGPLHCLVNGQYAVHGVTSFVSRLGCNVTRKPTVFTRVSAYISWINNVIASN", "assay": "Specificity assay, porcine pancreatic elastase", "assay_type": "biochemical", "protocol": "The specificities of compounds of the present disclosure were determined against a variety of serine proteases: human neutrophil elastase (HNE), porcine pancreatic elastase (PPE) and human pancreatic chymotrypsin and one cysteine protease: human liver cathepsin B. In all cases a 96-well plate format protocol using a fluorometric Amino-Methyl-Coumarin (AMC) substrate specific for each enzyme was used as described previously (PCT Patent Application No. WO 00/09543) with some modifications to the serine protease assays. All enzymes were purchased from Sigma, EMDbiosciences while the substrates were from Bachem, Sigma and EMDbiosciences.\nCompound concentrations varied from 100 to 0.4 μM depending on their potency. The enzyme assays were each initiated by addition of substrate to enzyme-inhibitor pre-incubated for 10 min at room temperature and hydrolysis to 15% conversion as measured on CYTOFLUOR®.\n50 mM Tris-HCl, pH 8.0, 50 mM NaCl, 0.1 mM […], 3% DMSO, 0.02% Tween-20, 5 μM succ-AAPV-AMC and 20 nM HNE or 8 nM PPE;\nThe percentage of inhibition was calculated using the formula: [1−((UVinh−UVblank)/(UVctl−UVblank))]×100\nA non-linear curve fit was applied to the inhibition-concentration data, and the 50% effective concentration (IC50) was calculated by the use of Excel XLfit software."}, "[2]": {"target": "T2, HCV NS3/4A protease complex, H77 strain (Hepatitis C virus genotype 1a, UniProt P27958, C1454S/C1711G)", "T2 construct": "DNA encoding the recombinant HCV NS3/4A protease complex (amino acids 1027 to 1711) for these strains; His tag (inferred from pET21b vector and Ni-NTA purification); made in house; host or cells: Escherichia coli BL21 (DE3), pET21b", "T2 sequence (P27958 1027-1711 C1454S/C1711G, one chain of several)": "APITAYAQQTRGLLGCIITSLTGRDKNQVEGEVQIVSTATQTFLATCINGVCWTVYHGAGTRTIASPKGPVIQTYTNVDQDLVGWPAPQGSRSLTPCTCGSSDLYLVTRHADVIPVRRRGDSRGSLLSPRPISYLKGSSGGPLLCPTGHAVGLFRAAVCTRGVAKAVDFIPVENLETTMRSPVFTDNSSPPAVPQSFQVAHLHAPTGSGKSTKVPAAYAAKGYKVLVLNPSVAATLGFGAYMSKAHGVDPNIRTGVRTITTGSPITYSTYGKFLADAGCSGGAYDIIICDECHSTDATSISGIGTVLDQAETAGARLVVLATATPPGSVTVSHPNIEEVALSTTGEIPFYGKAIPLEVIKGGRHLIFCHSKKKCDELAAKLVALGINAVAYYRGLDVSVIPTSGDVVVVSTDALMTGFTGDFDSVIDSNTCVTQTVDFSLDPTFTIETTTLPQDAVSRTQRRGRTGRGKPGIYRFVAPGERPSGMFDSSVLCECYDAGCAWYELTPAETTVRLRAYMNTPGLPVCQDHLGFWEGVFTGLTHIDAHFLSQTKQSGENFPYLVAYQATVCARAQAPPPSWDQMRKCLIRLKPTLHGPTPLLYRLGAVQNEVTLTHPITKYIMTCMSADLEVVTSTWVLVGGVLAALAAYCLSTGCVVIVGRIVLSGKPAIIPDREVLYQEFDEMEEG", "assay": "FRET peptide assay to monitor HCV NS3/4A proteolytic activity (H77 strain)", "assay_type": "biochemical, Hepatitis C virus (1a genotype)", "from_the_text": "HCV […] protease complexes, derived from the BMS strain, H77 strain or J4L6S strain, were generated, as described below. These purified recombinant proteins were generated for use in a homogeneous assay (see below) to provide an indication of how effective compounds of the present disclosure would be in inhibiting HCV NS3 proteolytic activity.\nSerum from an HCV-infected patient was obtained from Dr. T. Wright, San Francisco Hospital. An engineered full-length cDNA (compliment deoxyribonucleic acid) template of the HCV genome (BMS strain) was constructed from DNA fragments obtained by reverse transcription-PCR (RT-PCR) of serum RNA (ribonucleic acid) and using primers selected on the basis of homology between other genotype 1a strains. From the determination of the entire genome sequence, a genotype 1a was assigned to the HCV isolate according to the classification of Simmonds et al. (See Simmonds, P. et al., J. Clin. Microbiol., 31(6), 1493-1503 (1993)). […] The infectious clones, H77 (1a genotype) and J4L6S (1b genotype) were obtained from R. Purcell (NIH) and the sequences are published in GENBANK® (AAB67036, see Yanagi, M. et al., Proc. Natl. Acad. Sci. U.S.A., 94(16):8738-8743 (1997); AF054247, see Yanagi, M. et al., Virology, 244(1):161-172 (1998)).\nThe H77 and J4L6S strains were used for production of recombinant NS3/4A protease complexes. […]"}}}
{"smiles": "C=C[C@@H]1C[C@]1(NC(=O)[C@@H]1C[C@@](SCCCC)(c2ccc(-c3ccccc3)cc2)CN1C(=O)[C@@H](NC(=O)OC(C)(C)C)C(C)(C)C)C(=O)NS(=O)(=O)C1CC1", "note": "[Example 1, tert-butyl (S)-1-((2S,4R)-4-(biphenyl-4-yl)-4-(butylthio)-2-((1R,2S)-1-(cyclopropylsulfonylcarbamoyl)-2-vinylcyclopropylcarbamoyl)pyrrolidin-1-yl)-3,3-dimethyl-1-oxobutan-2-ylcarbamate]", "values": [{"measurement": "IC50", "setting": "[1]", "value": "> 25000", "unit": "nM"}, {"measurement": "IC50", "setting": "[2]", "value": 1.7, "unit": "nM"}]}
